Measurements published in patent publication US4849434A, “Novel thiazolidin-4-one derivatives and acid addition salts therof” (Sumitomo Pharmaceuticals Company, Limited, priority 1986, dated 1989).
Values after ≈ are worked out from the molar mass of the structure shown. Read-outs that look alike come from different tables or passages of the source.

Tests used:
[1] = tested on: platelet aggregation caused by PAF; assay: Inhibition of platelet aggregation, outside-living-body test (guinea pig, oral); assay type: in vivo; settings: Cavia porcellus, EC50 is of PAF, higher = more inhibition, read-out: EC50 value (PAF concentration necessary for causing an aggregation corresponding to 50% of the maximum PAF reaction)
Protocol: (§1) The test compound was intravenously administered (30 mg/kg) to a rabbit or orally administered (50 mg/kg) to a guinea pig. Blood samples were collected, and the extent of platelet aggregation caused by 10^-12 -10^-6 M of PAF was examined. The numerical values in the Table show the PAF concentrations (EC50 nM) necessary for causing an aggregation corresponding to 50% of the maximum PAF reaction.

[2] = tested on: rabbit platelet aggregation caused by PAF; assay: Inhibition of PAF-induced platelet aggregation in vitro test; assay type: cell-based, rabbit (Japanese white crossbred male); settings: rabbit PRP; for Specific activity relative to the activity of the compound of Example 1: inhibition of PAF-induced aggregation, compound of Example 1 = 1
Protocol: The inhibition of PAF-induced platelet aggregation was examined by use of a platelet-rich plasma [PRP] of a rabbit according to the method of Mustard et al. [J. F. Mustard et al., J. Lab. Clin. Med., 64, 548 (1964)], which is an improved version of the method of Born [G. V. R. Born, J. Physiol., London, 162, 67 (1962)]. Thus, 80 to 100 ml of blood per animal was collected from the carotid artery of a Japanese white crossbred male rabbit without anesthesia into a polyethylene vessel in which 1/10 the volume of a 3.8% sodium citrate solution had been placed beforehand. A portion (about 3 ml) of the blood thus collected was subjected to high speed centrifugation (11,000 rpm, 60 seconds) to obtain a platelet-poor plasma (PPP) as supernatant. The remainder of the blood was subjected to low speed centrifugation (1,000 rpm, 10 minutes) to obtain a platelet-richplasma (PRP) as supernatant.
The platelet aggregation was evaluated by nephelometry, the determination being made with PRP stirred at 1,000 rpm at 37° C. by use of an aggregater (Hematracer, Niko Bioscience Co.). The platelet aggregation activity was expressed in terms of the percent of light transmission, that of PRP being taken as 0% and that of PPP being taken as 100%. A 0.2 ml portion of PRP was placed in a glass cuvette containing a silicone-treatediron stirring rod, and 2 μl of dimethyl sulfoxide was added thereto. After 2 minutes, a PAF solution in 0.25% BSA physiological saline was added thereto to give a final concentration of PAF of […] and the maximum aggregation was determined. To examine the inhibitory activity of test compounds for the platelet aggregation caused by PAF, 2 μl of a test compound dissolved in dimethyl sulfoxide was added in place of dimethyl sulfoxide described above. The PAF inhibitory rate of a test compound was calculated according to the following equation: [formula]

[3] = tested on: platelet aggregation caused by PAF; assay: Inhibition of platelet aggregation, outside-living-body test (rabbit, intravenous); assay type: in vivo; settings: Oryctolagus cuniculus, EC50 is of PAF, higher = more inhibition, read-out: EC50 value (PAF concentration necessary for causing an aggregation corresponding to 50% of the maximum PAF reaction)
Protocol: as §1

| SMILES | Specific activity relative to the activity of the compound of Example 1 [2] | also measured |
| --- | --- | --- |
| CN1C(=O)C(c2ccc(Cl)cc2)SC1c1cccnc1 (stereo not shown) [Example 1, 5-(4-chlorophenyl)-3-methyl-2-(3-pyridyl)thiazolidin-4-one] |  | EC50 at 50 mg/kg ([1]; 0 hr after administration): 0.23 nM; EC50 at 50 mg/kg ([1]; 0.5 hr after administration): 10 nM; EC50 at 50 mg/kg ([1]; 1 hr after administration): 17 nM; EC50 at 50 mg/kg ([1]; 2 hr after administration): 3 nM; EC50 at 50 mg/kg ([1]; 4 hr after administration): 1 nM; IC50 ([2]; Oryctolagus cuniculus, Platelet, PAF-induced aggregation): 5 µg/mL (≈ 16.4 µM); EC50 at 30 mg/kg ([3]; 0 hr after administration): 6.2 nM; EC50 at 30 mg/kg ([3]; 0.5 hr after administration): 26 nM; EC50 at 30 mg/kg ([3]; 1 hr after administration): 20 nM; EC50 at 30 mg/kg ([3]; 2 hr after administration): 16 nM; EC50 at 30 mg/kg ([3]; 4 hr after administration): 14 nM |
| O=C1C(c2ccc(Cl)cc2)SC(c2cccnc2)N1CCCO (stereo not shown) [Example 27] | 0.6 |  |
| CN1C(=O)C(c2ccc(F)cc2)SC1c1cccnc1 (stereo not shown) [Example 4] | 1.3 |  |
| CC(=O)OCCN1C(=O)C(c2ccc(Cl)cc2)SC1c1cccnc1 (single isomer, unassigned) [Example 32] | 1.8 |  |
| COc1ccc(C2SC(c3cccnc3)N(C)C2=O)cc1OC (stereo not shown) [Example 11] | 0.7 |  |
| CN1C(=O)C(c2ccccc2)SC1c1cccnc1 (stereo not shown) [Example 14] | 1.4 |  |
| COc1ccc(CCN2C(=O)C(c3ccc(Cl)cc3)SC2c2cccnc2)cc1OC (single isomer, unassigned) [Example 21] | 2.2 |  |
| C#CCN1C(=O)C(c2ccc(Cl)cc2)SC1c1cccnc1 (single isomer, unassigned) [Example 19] | 1.2 |  |
| CN1C(=O)C(c2c(Cl)cccc2Cl)SC1c1cccnc1 (stereo not shown) [Example 13] | 2.3 |  |
| CCN1C(=O)C(c2ccc(Cl)cc2)SC1c1cccnc1 (stereo not shown) [Example 15] | 0.5 |  |
| CN1C(=O)C(c2cccc3ccccc23)SC1c1cccnc1 (stereo not shown) [Example 5] | 0.9 |  |
| C=CCN1C(=O)C(c2ccc(Cl)cc2)SC1c1cccnc1 (single isomer, unassigned) [Example 17] | 1.0 |  |
